Results reported in patent US10214544B2, “Imidazopyridazine and imidazothiadiazole compounds” (Universite de Montreal, priority 2015, dated 2019).

molecular target: PAR4 (Homo sapiens (Human), UniProt Q96RI0); test: FLIPR assay in PAR4-expressing HEK293 cells (PAR4 antagonist activity); assay type: cell-based; settings: inhibition of H-Ala-Phe(4-F)-Pro-Gly-Trp-Leu-Val-Lys-Asn-Gly-NH2-induced intracellular calcium mobilization
Description: The FLIPR assay is an exemplary in vitro assay for measuring the activity of the PAR4 antagonists of the present invention. In this assay, intracellular calcium mobilization is induced in PAR4 expressing cells by a PAR4 agonist and calcium mobilization is monitored. See, e.g., Example A.
HEK293 cells stably expressing PAR4 were generated by a standard method of transfection of human PAR4 (F2R23) cDNA expression vector and selected based on PAR4 protein expression or mRNA expression. […] These cells also express endogenous PAR1 and can elicit calcium signal upon stimulation with PAR1 agonist peptide. Therefore, the same cells were also used to determine selectivity against PAR1 and agonist activity for both receptors. Cells from HEK293 PAR4 Clone 1.2A (BMS Arctic ID 383940) were propagated and used for calcium mobilization studies.
FLIPR-based calcium mobilization assay in HEK293 cells was used to measure PAR4 antagonism, agonism, and selectivity against PAR1. The activity of the PAR4 antagonists of the present invention were tested in PAR4 expressing cells by monitoring H-Ala-Phe(4-F)-[…]NH2-induced intracellular calcium mobilization. Counter screens for agonist activity and PAR1 antagonist activity were also performed. Briefly, PAR1/PAR4-expressing HEK293 cells were grown in DMEM (Life Technology, Grand Island, N.Y.) containing 10% heat-inactivated FBS, 1% Penicillin-Streptomycin, 10 μg/mL blasticidin, and 100 μg/mL Zeocin at 37° C. with 5% CO2. Cells were plated overnight prior to the experiment in a black 384-well Purecoat Amine clear bottom plate (Becton Dickinson Biosciences, San Jose, Calif.) at 10,000 cells/well in 30 μL growth medium and incubated in a humidified chamber at 37° C. with 5% CO2 overnight. Prior to compound addition, the cell medium was replaced with […] of 1× calcium and magnesium-containing Hank's Balanced Saline Solution (HBSS) (with 20 mM HEPES) and 1:1000 diluted fluorescent calcium indicator (Codex Biosolutions, Gaithersburg, Md.). After a 30 minute incubation period at 37° C. and a further 30 minute incubation and equilibration period at room temperature, 20 μL test compound (diluted in 1× HBSS buffer) was added at various concentrations at 0.17% dimethyl sulfoxide (DMSO) final concentration. Changes in fluorescence intensity were measured using a Functional Drug Screening System (FDSS, Hamamatsu, Japan) to determine agonist activities. The cells were then incubated for 30 minutes at room temperature followed by addition of 20 μL of agonist peptide for antagonist activity measurement. […] Compound potency was derived from 11-point concentration-response curves.
The following Table sets out results obtained employing various compounds of the invention tested in the FLIPR assay. As indicated above, the FLIPR assay, an in vitro assay, measures the PAR4 antagonist activity of compounds tested as described in Example A.

Chain of PAR4 (Q96RI0 18-385): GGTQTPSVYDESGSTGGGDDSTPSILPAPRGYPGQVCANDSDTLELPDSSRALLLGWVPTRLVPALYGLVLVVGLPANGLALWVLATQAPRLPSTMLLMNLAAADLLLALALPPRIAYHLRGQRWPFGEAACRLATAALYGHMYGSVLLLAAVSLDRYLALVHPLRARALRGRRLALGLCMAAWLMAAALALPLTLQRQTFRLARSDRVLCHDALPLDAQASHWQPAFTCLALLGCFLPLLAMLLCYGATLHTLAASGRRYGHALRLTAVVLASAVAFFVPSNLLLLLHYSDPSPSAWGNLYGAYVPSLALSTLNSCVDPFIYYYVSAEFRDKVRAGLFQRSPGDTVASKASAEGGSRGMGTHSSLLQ

SMILES | EC50
COc1cc(OCc2cccc(N(C)C(=O)c3ccc(F)cc3)c2)c2cc(-c3cn4nc(OC)sc4n3)oc2c1 [Example 87] | 5.7 nM
COc1cc(OCc2cccc(NC(=O)c3ccco3)c2)c2cc(-c3cn4nc(OC)sc4n3)oc2c1 [Example 134] | 5 nM
COc1cc(OCc2ccc3c(c2)N(C(=O)c2ccc(OC)nc2)CC3)c2cc(-c3cn4nc(OC)sc4n3)oc2c1 [Example 106] | 1.5 nM
COc1cc(OCc2cccc(NC(=O)Cc3ccccc3)c2)c2cc(-c3cn4nc(OC)sc4n3)oc2c1 [Example 135] | 5 nM
COc1cc(OCc2cccc(N(C)C(=O)c3ccc(OC)nc3)c2)c2cc(-c3cn4nc(OC)sc4n3)oc2c1 [Example 90] | 1.1 nM
COc1cc(OCc2ccc3c(c2)N(C(=O)c2csc(-c4ccccc4)n2)CC3)c2cc(-c3cn4nc(OC)sc4n3)oc2c1 [Example 112] | 0.55 nM
COc1ccc(C(=O)Nc2cccc(COc3cc(OC)cc4oc(-c5cn6nc(OC)sc6n5)cc34)c2)cc1 [Example 18] | 0.91 nM
COc1cc(OCc2cccc(NC(=O)COCc3ccccc3)c2)c2cc(-c3cn4nc(OC)sc4n3)oc2c1 [Example 17] | 0.55 nM
COc1cc(OCc2cccc(NC(=O)c3c(OC)cccc3OC)c2)c2cc(-c3cn4nc(OC)sc4n3)oc2c1 [Example 162] | 11 nM
COc1cc(OCc2cccc(NC(=O)c3cc(F)cc(OC(F)(F)F)c3)c2)c2cc(-c3cn4nc(OC)sc4n3)oc2c1 [Example 76] | 2.5 nM
COc1cc(OCc2cccc(NC(=O)c3c(Cl)cccc3Cl)c2)c2cc(-c3cn4nc(OC)sc4n3)oc2c1 [Example 12] | 1.5 nM
COc1cc(OCc2cccc3c2CCN3C(=O)c2csc(-c3ccccc3)n2)c2cc(-c3cn4nc(OC)sc4n3)oc2c1 [Example 119] | 1700 nM
COc1cc(OCc2cccc(NC(=O)c3ccc4ccccc4c3)c2)c2cc(-c3cn4nc(OC)sc4n3)oc2c1 [Example 23] | 1.8 nM
CNc1cccc(COc2cc(OC)cc3oc(-c4cn5nc(OC)sc5n4)cc23)c1 [Example 82, 3-(((6-Methoxy-2-(2-methoxyimidazo[2,1-b][1,3,4]thiadiazol-6-yl)benzofuran-4-yl)oxy)methyl)-N-methylaniline] | 5.2 nM
COc1cc(OCc2cccc(NC(=O)c3cccnc3)c2)c2cc(-c3cn4nc(OC)sc4n3)oc2c1 [Example 148] | 6.8 nM
COc1cc(OCc2cccc3c2CCN3C(=O)c2ccccc2)c2cc(-c3cn4nc(OC)sc4n3)oc2c1 [Example 115, (4-(((6-Methoxy-2-(2-methoxyimidazo[2,1-b][1,3,4]thiadiazol-6-yl)benzofuran-4-yl)oxy)methyl)indolin-1-yl)(phenyl)methanone] | 96 nM
COc1cc(Cl)cc(C(=O)Nc2cccc(COc3cc(OC)cc4oc(-c5cn6nc(OC)sc6n5)cc34)c2)c1 [Example 63] | 1.4 nM
COc1cc(OCc2cccc(NC(=O)c3cccnc3F)c2)c2cc(-c3cn4nc(OC)sc4n3)oc2c1 [Example 61] | 1.5 nM
COc1cc(OCc2cccc(NC(=O)c3ccc(F)cc3)c2)c2cc(-c3cn4nc(OC)sc4n3)oc2c1 [Example 2, 4-Fluoro-N-(3-(((6-methoxy-2-(2-methoxyimidazo[2,1-b][1,3,4]thiadiazol-6-yl)benzofuran-4-yl)oxy)methyl)phenyl)benzamide] | 1 nM
COc1cc(OCc2cccc(NC(=O)c3cc(OCc4ccccc4)cc(C(F)(F)F)c3)c2)c2cc(-c3cn4nc(OC)sc4n3)oc2c1 [Example 62] | 57 nM
COc1cc(OCc2ccc3c(c2)N(C(=O)c2ccccc2OC)CC3)c2cc(-c3cn4nc(OC)sc4n3)oc2c1 [Example 103] | 4.5 nM
COc1cc(OCc2cccc(N(C)C(=O)c3cccc(F)c3)c2)c2cc(-c3cn4nc(OC)sc4n3)oc2c1 [Example 85] | 6.1 nM
COc1cc(OCc2ccc3c(c2)N(C(=O)c2ccccc2F)CC3)c2cc(-c3cn4nc(OC)sc4n3)oc2c1 [Example 104] | 2.2 nM
COc1cc(OCc2cccc(NC(=O)c3ccc(C)nc3O)c2)c2cc(-c3cn4nc(OC)sc4n3)oc2c1 [Example 73] | 3.6 nM
COc1cc(OCc2cccc(NC(=O)c3cccc(Cl)c3Cl)c2)c2cc(-c3cn4nc(OC)sc4n3)oc2c1 [Example 156] | 1.7 nM

SMILES | EC50
COc1cc(OCc2cccc(NC(=O)c3c(F)cc(F)cc3F)c2)c2cc(-c3cn4nc(OC)sc4n3)oc2c1 [Example 21] | 1.5 nM
COc1cc(OCc2cccc(NC(=O)c3cc(OC(F)F)cc(C(F)(F)F)c3)c2)c2cc(-c3cn4nc(OC)sc4n3)oc2c1 [Example 74] | 0.95 nM
COc1cc(OCc2cccc(NC(=O)c3cc(Cl)cc(OCc4ccccc4)c3)c2)c2cc(-c3cn4nc(OC)sc4n3)oc2c1 [Example 67] | 680 nM
COc1cc(OCc2ccc3c(c2)N(C(C)=O)CC3)c2cc(-c3cn4nc(OC)sc4n3)oc2c1 [Example 107] | 26 nM
COc1cc(OCc2cccc(NC(=O)c3ccc(C(C)(C)C)cc3)c2)c2cc(-c3cn4nc(OC)sc4n3)oc2c1 [Example 37] | 2.5 nM
COc1cc(OCc2cccc(NC(=O)c3cccc(Cl)c3)c2)c2cc(-c3cn4nc(OC)sc4n3)oc2c1 [Example 11] | 1.7 nM
COc1cc(OCc2cccc(NC(=O)c3csc(-c4ccc(F)cc4)n3)c2)c2cc(-c3cn4nc(OC)sc4n3)oc2c1 [Example 77] | 120 nM
COc1cc(OCc2cccc(NC(=O)c3ccc(F)c(F)c3F)c2)c2cc(-c3cn4nc(OC)sc4n3)oc2c1 [Example 14] | 1.4 nM
CCCc1ccc(C(=O)Nc2cccc(COc3cc(OC)cc4oc(-c5cn6nc(OC)sc6n5)cc34)c2)cc1 [Example 31] | 1.3 nM
COc1cc(OCc2cccc3c2CCN3C(=O)c2csc(C(F)(F)F)n2)c2cc(-c3cn4nc(OC)sc4n3)oc2c1 [Example 118] | 16 nM
COc1nn2cc(-c3cc4c(OCc5cccc(NC(=O)c6ccccc6)c5)cccc4o3)nc2s1 [Example 52] | 0.41 nM
COc1cc(OCc2cccc(NC(=O)c3ccccc3C(F)(F)F)c2)c2cc(-c3cn4nc(OC)sc4n3)oc2c1 [Example 13] | 1.9 nM
COc1cc(OCc2cccc(NC(=O)C(C)(C)Oc3ccccc3)c2)c2cc(-c3cn4nc(OC)sc4n3)oc2c1 [Example 40] | 1.4 nM
COc1cc(OCc2cccc(NC(=O)c3ccc(Cl)cc3)c2)c2cc(-c3cn4nc(OC)sc4n3)oc2c1 [Example 5, 4-Chloro-N-(3-(((6-methoxy-2-(2-methoxyimidazo[2,1-b][1,3,4]thiadiazol-6-yl)benzofuran-4-yl)oxy)methyl)phenyl)benzamide] | 1.3 nM
COc1cc(OCc2cccc(N(C)C(=O)OC(C)(C)C)c2)c2cc(-c3cn4nc(OC)sc4n3)oc2c1 [Example 81, tert-Butyl (3-(((6-methoxy-2-(2-methoxyimidazo[2,1-b][1,3,4]thiadiazol-6-yl)benzofuran-4-yl)oxy)methyl)phenyl)(methyl)carbamate] | 4.8 nM
COc1cc(OCc2cccc(NC(=O)c3ccc(Cl)nc3)c2)c2cc(-c3cn4nc(OC)sc4n3)oc2c1 [Example 53] | 3.5 nM
COc1cc(OCc2cccc(NC(=O)Cc3cc(C)no3)c2)c2cc(-c3cn4nc(OC)sc4n3)oc2c1 [Example 47] | 6.9 nM
COc1cc(OCc2cccc(NC(=O)c3ccccc3F)c2)c2cc(-c3cn4nc(OC)sc4n3)oc2c1 [Example 26] | 0.75 nM
COc1cc(OCc2cccc(N)c2)c2cc(-c3cn4nc(OC)sc4n3)oc2c1 [Example 4, 3-(((6-Methoxy-2-(2-methoxyimidazo[2,1-b][1,3,4]thiadiazol-6-yl)benzofuran-4-yl)oxy)methyl)aniline] | 17 nM
COc1cc(OCc2cccc(NC(=O)Cc3nc(C)sc3C)c2)c2cc(-c3cn4nc(OC)sc4n3)oc2c1 [Example 49] | 0.85 nM
COc1cc(OCc2cccc(NC(=O)c3ccnc(O)c3)c2)c2cc(-c3cn4nc(OC)sc4n3)oc2c1 [Example 56] | 5.5 nM
COc1cc(OCc2cccc(NC(=O)c3ccc(Br)cn3)c2)c2cc(-c3cn4nc(OC)sc4n3)oc2c1 [Example 65] | 1.1 nM
COc1cc(OCc2cccc3c2CCN3C(C)=O)c2cc(-c3cn4nc(OC)sc4n3)oc2c1 [Example 117] | > 3300 nM
COc1cc(OCc2cccc(NC(=O)c3cc(F)cc(C(F)(F)F)c3)c2)c2cc(-c3cn4nc(OC)sc4n3)oc2c1 [Example 142] | 1.3 nM
